In patent publication US20210122730A1, “GLUCOCORTICOID RECEPTOR MODULATORS” (ORIC Pharmaceuticals, Inc., priority 2017, published 2021) one finds IC50 data, which are given here for 21 molecules.

A value given as a limit tells only on which side of the number the result lay.

One assay addresses T1, GR (Homo sapiens, UniProt P04150).
T1 construct: expressed in transfected cells; host or cells: CHO-K1
T1 sequence (P04150 1-777): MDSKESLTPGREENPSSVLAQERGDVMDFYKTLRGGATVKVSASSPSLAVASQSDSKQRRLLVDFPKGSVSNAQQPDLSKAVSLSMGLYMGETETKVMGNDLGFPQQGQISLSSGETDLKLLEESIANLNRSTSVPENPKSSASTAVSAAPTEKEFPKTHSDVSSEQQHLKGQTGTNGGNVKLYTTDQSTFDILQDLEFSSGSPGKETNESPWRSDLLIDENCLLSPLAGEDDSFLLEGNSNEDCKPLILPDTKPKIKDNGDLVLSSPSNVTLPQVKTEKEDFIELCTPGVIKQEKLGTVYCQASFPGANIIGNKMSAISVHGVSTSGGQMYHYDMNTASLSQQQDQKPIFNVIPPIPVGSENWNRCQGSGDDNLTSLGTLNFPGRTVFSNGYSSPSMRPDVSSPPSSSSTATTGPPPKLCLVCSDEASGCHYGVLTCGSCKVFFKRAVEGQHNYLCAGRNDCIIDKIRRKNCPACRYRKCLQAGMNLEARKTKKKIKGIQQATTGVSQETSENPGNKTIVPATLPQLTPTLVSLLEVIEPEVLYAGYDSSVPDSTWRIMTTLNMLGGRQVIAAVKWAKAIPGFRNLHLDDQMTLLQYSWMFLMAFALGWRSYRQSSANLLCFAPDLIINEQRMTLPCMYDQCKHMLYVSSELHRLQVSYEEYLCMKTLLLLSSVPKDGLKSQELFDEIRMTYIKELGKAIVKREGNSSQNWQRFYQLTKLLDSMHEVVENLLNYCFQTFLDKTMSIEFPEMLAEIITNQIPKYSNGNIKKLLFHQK
The experiment in a line: In Vitro GR Luciferase Reporter Assay (antagonist mode, CHO-K1-GR-MMTV-Luc reporter cells). It is filed as cell-based. The conditions noted are these: antagonist assay with 10 nM Dexamethasone, 18-24 hours. The gist of the method: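 Antagonist mode: compounds (8 serial 1:5 dilutions) added to GR-MMTV-luciferase CHO-K1 reporter cells co-exposed to 10 nM dexamethasone final, in phenol red-free DMEM plus 10% CSS. After roughly 18-24 h at 37° C, OneGlo luminescence read and IC50 calculated.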
In general terms: Reporter assays use an easily measured gene product as a stand-in for the process of interest.
Regarding `O=C(c1cc(C(F)(F)F)ccn1)[C@]12Cc3cnn(-c4ccc(F)cc4)c3C=C1CC[C@H](S(=O)(=O)c1cnn(CC3CC3)n1)C2` [Example 79, ((4aS,6S)-6-((2-(cyclopropylmethyl)-2H-1,2,3-triazol-4-yl)sulfonyl)-1-(4-fluorophenyl)-1,4,5,6,7,8-hexahydro-4aH-benzo[f]indazol-4a-yl)(4-(trifluoromethyl)pyridin-2-yl)methanone], the IC50 was no more than 100 nM. Still for that read-out and setting: next, `CN([C@H]1CCC2=Cc3c(cnn3-c3ccc(F)cc3)C[C@]2(C(=O)c2ccccn2)C1)S(=O)(=O)c1ccccc1` [Example 80, N-((4aS,6S)-1-(4-fluorophenyl)-4a-picolinoyl-4,4a,5,6,7,8-hexahydro-1H-benzo[f]indazol-6-yl)-N-methylbenzenesulfonamide]: no more than 100 nM; `CN([C@H]1CCC2=Cc3c(cnn3-c3ccc(F)cc3)C[C@]2(C(=O)c2ccccn2)C1)S(=O)(=O)c1cccc(Cl)c1` [Example 82, 3-chloro-N-((4aS,6S)-1-(4-fluorophenyl)-4a-picolinoyl-4,4a,5,6,7,8-hexahydro-1H-benzo[f]indazol-6-yl)-N-methylbenzenesulfonamide]: no more than 100 nM; `CN([C@H]1CCC2=Cc3c(cnn3-c3ccc(F)cc3)C[C@]2(C(=O)c2ccccn2)C1)S(=O)(=O)c1cccc(C(F)(F)F)c1` [Example 83, N-((4aS,6S)-1-(4-fluorophenyl)-4a-picolinoyl-4,4a,5,6,7,8-hexahydro-1H-benzo[f]indazol-6-yl)-N-methyl-3-(trifluoromethyl)benzenesulfonamide]: no more than 100 nM. For the molecule `CN([C@H]1CCC2=Cc3c(cnn3-c3ccc(F)cc3)C[C@]2(C(=O)c2ccccn2)C1)S(=O)(=O)c1cccnc1` [Example 84, N-((4aS,6S)-1-(4-fluorophenyl)-4a-picolinoyl-4,4a,5,6,7,8-hexahydro-1H-benzo[f]indazol-6-yl)-N-methylpyridine-3-sulfonamide], the IC50 was no more than 100 nM. Same read-out and setting: then `CN([C@H]1CCC2=Cc3c(cnn3-c3ccc(F)cc3)C[C@]2(C(=O)c2ccccn2)C1)S(=O)(=O)c1ccc(C(F)(F)F)cc1` [Example 85, N-((4aS,6S)-1-(4-fluorophenyl)-4a-picolinoyl-4,4a,5,6,7,8-hexahydro-1H-benzo[f]indazol-6-yl)-N-methyl-4-(trifluoromethyl)benzenesulfonamide], with no more than 100 nM; and `CN([C@H]1CCC2=Cc3c(cnn3-c3ccc(F)cc3)C[C@]2(C(=O)c2cc(C(F)(F)F)ccn2)C1)S(=O)(=O)c1ccc(C(F)(F)F)cc1` [Example 86, N-((4aS,6S)-1-(4-fluorophenyl)-4a-(4-(trifluoromethyl)picolinoyl)-4,4a,5,6,7,8-hexahydro-1H-benzo[f]indazol-6-yl)-N-methyl-4-(trifluoromethyl)benzenesulfonamide], with no more than 100 nM. With `CCn1cc(S(=O)(=O)N(C)[C@H]2CCC3=Cc4c(cnn4-c4ccc(F)cc4)C[C@]3(C(=O)c3cc(C(F)(F)F)ccn3)C2)cn1` [Example 87, 1-ethyl-N-((4aS,6S)-1-(4-fluorophenyl)-4a-(4-(trifluoromethyl)picolinoyl)-4,4a,5,6,7,8-hexahydro-1H-benzo[f]indazol-6-yl)-N-methyl-1H-pyrazole-4-sulfonamide], the IC50 is no more than 100 nM.

Turning to `CN(C(=O)c1ccccc1)[C@H]1CCC2=Cc3c(cnn3-c3ccc(F)cc3)C[C@]2(C(=O)c2ccccn2)C1` [Example 89, N-((4aS,6S)-1-(4-fluorophenyl)-4a-picolinoyl-4,4a,5,6,7,8-hexahydro-1H-benzo[f]indazol-6-yl)-N-methylbenzamide], the IC50 was no more than 100 nM. The molecule `CN(c1ccccc1)S(=O)(=O)[C@H]1CCC2=Cc3c(cnn3-c3ccc(F)cc3)C[C@]2(C(=O)c2ccccn2)C1` [Example 92, (4aS,6S)-1-(4-fluorophenyl)-N-methyl-N-phenyl-4a-picolinoyl-4,4a,5,6,7,8-hexahydro-1H-benzo[f]indazole-6-sulfonamide] registered an IC50 of 100 to 1000 nM. Molecule `CN([C@@H]1CCC2=Cc3c(cnn3-c3ccc(F)cc3)C[C@]2(C(=O)c2cc(C(F)(F)F)ccn2)C1)S(=O)(=O)c1cnn(C)c1` [Example 95, N-((4aS,6R)-1-(4-fluorophenyl)-4a-(4-(trifluoromethyl)picolinoyl)-4,4a,5,6,7,8-hexahydro-1H-benzo[f]indazol-6-yl)-N,1-dimethyl-1H-pyrazole-4-sulfonamide] gave an IC50 of no more than 100 nM. Regarding `CN(C(=O)c1cnn(C)c1)[C@H]1CCC2=Cc3c(cnn3-c3ccc(F)cc3)C[C@]2(C(=O)c2cc(C(F)(F)F)ccn2)C1` [Example 96, N-((4aS,6S)-1-(4-fluorophenyl)-4a-(4-(trifluoromethyl)picolinoyl)-4,4a,5,6,7,8-hexahydro-1H-benzo[f]indazol-6-yl)-N,1-dimethyl-1H-pyrazole-4-carboxamide], the IC50 is no more than 100 nM.

For `CC(C)n1cc(S(=O)(=O)N(C)[C@H]2CCC3=Cc4c(cnn4-c4ccc(F)cc4)C[C@]3(C(=O)c3cc(C(F)(F)F)ccn3)C2)cn1` [Example 97, N-((4aS,6S)-1-(4-fluorophenyl)-4a-(4-(trifluoromethyl)picolinoyl)-4,4a,5,6,7,8-hexahydro-1H-benzo[f]indazol-6-yl)-1-isopropyl-N-methyl-1H-pyrazole-4-sulfonamide], the IC50 was no more than 100 nM.

The molecule `CN([C@H]1CCC2=Cc3c(cnn3-c3ccc(F)cc3)C[C@]2(C(=O)c2cc(C(F)(F)F)ccn2)C1)S(=O)(=O)c1cnn(C)c1` [Example 100, N-((4aS,6S)-1-(4-fluorophenyl)-4a-(4-(trifluoromethyl)picolinoyl)-4,4a,5,6,7,8-hexahydro-1H-benzo[f]indazol-6-yl)-N,1-dimethyl-1H-pyrazole-4-sulfonamide] returned an IC50 of 100 to 1000 nM.

In turn, `CN(c1cnn(C)c1)S(=O)(=O)[C@H]1CCC2=Cc3c(cnn3-c3ccc(F)cc3)C[C@]2(C(=O)c2cc(C(F)(F)F)ccn2)C1` [Example 101, (4aS,6S)-1-(4-fluorophenyl)-N-methyl-N-(1-methyl-1H-pyrazol-4-yl)-4a-(4-(trifluoromethyl)picolinoyl)-4,4a,5,6,7,8-hexahydro-1H-benzo[f]indazole-6-sulfonamide] came in with an IC50 of 100 to 1000 nM. For the molecule `CN([C@H]1CCC2=Cc3c(cnn3-c3ccc(F)cc3)C[C@]2(C(=O)c2ccc(C(F)(F)F)cn2)C1)S(=O)(=O)c1ccc(Cl)cc1` [Example 105, 4-chloro-N-((4aS,6S)-1-(4-fluorophenyl)-4a-(5-(trifluoromethyl)picolinoyl)-4,4a,5,6,7,8-hexahydro-1H-benzo[f]indazol-6-yl)-N-methylbenzenesulfonamide], the IC50 was no more than 100 nM.

In turn, `CN([C@H]1CCC2=Cc3c(cnn3-c3ccc(F)cc3)C[C@]2(C(=O)c2nccs2)C1)S(=O)(=O)c1ccc(F)cc1` [Example 106, 4-fluoro-N-((4aS,6S)-1-(4-fluorophenyl)-4a-(thiazole-2-carbonyl)-4,4a,5,6,7,8-hexahydro-1H-benzo[f]indazol-6-yl)-N-methylbenzenesulfonamide] returned an IC50 of no more than 100 nM.

In the case of `CN([C@H]1CCC2=Cc3c(cnn3-c3ccc(F)cc3)C[C@]2(C(=O)c2cc(C(F)(F)F)ccn2)C1)S(=O)(=O)c1cnn(CC2CC2)c1` [Example 108, 1-(cyclopropylmethyl)-N-((4aS,6S)-1-(4-fluorophenyl)-4a-(4-(trifluoromethyl)picolinoyl)-4,4a,5,6,7,8-hexahydro-1H-benzo[f]indazol-6-yl)-N-methyl-1H-pyrazole-4-sulfonamide], the IC50 was no more than 100 nM. For the molecule `CCN([C@H]1CCC2=Cc3c(cnn3-c3ccc(F)cc3)C[C@]2(C(=O)c2ccc(C3CC3)cn2)C1)S(=O)(=O)c1ccc(F)cc1` [Example 109, N-((4aS,6S)-4a-(5-cyclopropylpicolinoyl)-1-(4-fluorophenyl)-4,4a,5,6,7,8-hexahydro-1H-benzo[f]indazol-6-yl)-N-ethyl-4-fluorobenzenesulfonamide], the IC50 was no more than 100 nM. `CCN([C@H]1CCC2=Cc3c(cnn3-c3ccc(F)cc3)C[C@]2(C(=O)c2ccc(C3CC3)cn2)C1)S(=O)(=O)c1ccc(Cl)cc1` [Example 110, 4-chloro-N-((4aS,6S)-4a-(5-cyclopropylpicolinoyl)-1-(4-fluorophenyl)-4,4a,5,6,7,8-hexahydro-1H-benzo[f]indazol-6-yl)-N-ethylbenzenesulfonamide] registered an IC50 of no more than 100 nM.

The assay is the same for the next values; noted with them: antagonist mode, 10 nM Dexamethasone.
`O=C(c1cc(C(F)(F)F)ccn1)[C@]12Cc3cnn(-c4ccc(F)cc4)c3C=C1CC[C@H](S(=O)(=O)c1cnn(CC(F)(F)F)n1)C2` [Example 115, ((4aS,6S)-1-(4-Fluorophenyl)-6-((2-(2,2,2-trifluoroethyl)-2H-1,2,3-triazol-4-yl)sulfonyl)-1,4,5,6,7,8-hexahydro-4aH-benzo[f]indazol-4a-yl)(4-(trifluoromethyl)pyridin-2-yl)methanone] returned a half-maximal inhibitory concentration (IC50) of no more than 100 nM.

In general, IC50 refers to the point on the concentration scale where inhibition reaches its midpoint. A high value points to weaker potency.
